The source of these data is ChEMBL document CHEMBL5674873, “Expression and inhibition of BRD4, EZH2 and TOP2A in neurofibromas and malignant peripheral nerve sheath tumors” (PLoS One, 2017).

Common to all, as to format: cell-based
Experiment [1] deals with T1, Bromodomain-containing protein 4 (Homo sapiens, UniProt O60885). The experiment can be described thus: Inhibition of BRD4 in human HS53T cells assessed as reduction in cell viability at 4.9 to 2500 nM incubated for 72 hrs by SRB assay.
Experiment [2] concerns the target T1, Bromodomain-containing protein 4. The experiment can be described thus: Inhibition of BRD4 in human ST88-14 cells assessed as reduction in cell viability at 4.9 to 2500 nM incubated for 72 hrs by SRB assay.
For experiment [3] the target is unchanged. To be noted: sts-26t.
Description: Inhibition of BRD4 in human STS-26T cells assessed as reduction in cell viability at 4.9 to 2500 nM incubated for 72 hrs by SRB assay
The target of experiment [4] is DNA topoisomerase 2-alpha (Homo sapiens, UniProt P11388). The experiment can be described thus: Inhibition of TOP2A in human HS53T cells assessed as reduction in cell viability at 1 to 500 ng/ml incubated for 72 hrs by SRB assay.
Chain of DNA topoisomerase 2-alpha (P11388 whole entry): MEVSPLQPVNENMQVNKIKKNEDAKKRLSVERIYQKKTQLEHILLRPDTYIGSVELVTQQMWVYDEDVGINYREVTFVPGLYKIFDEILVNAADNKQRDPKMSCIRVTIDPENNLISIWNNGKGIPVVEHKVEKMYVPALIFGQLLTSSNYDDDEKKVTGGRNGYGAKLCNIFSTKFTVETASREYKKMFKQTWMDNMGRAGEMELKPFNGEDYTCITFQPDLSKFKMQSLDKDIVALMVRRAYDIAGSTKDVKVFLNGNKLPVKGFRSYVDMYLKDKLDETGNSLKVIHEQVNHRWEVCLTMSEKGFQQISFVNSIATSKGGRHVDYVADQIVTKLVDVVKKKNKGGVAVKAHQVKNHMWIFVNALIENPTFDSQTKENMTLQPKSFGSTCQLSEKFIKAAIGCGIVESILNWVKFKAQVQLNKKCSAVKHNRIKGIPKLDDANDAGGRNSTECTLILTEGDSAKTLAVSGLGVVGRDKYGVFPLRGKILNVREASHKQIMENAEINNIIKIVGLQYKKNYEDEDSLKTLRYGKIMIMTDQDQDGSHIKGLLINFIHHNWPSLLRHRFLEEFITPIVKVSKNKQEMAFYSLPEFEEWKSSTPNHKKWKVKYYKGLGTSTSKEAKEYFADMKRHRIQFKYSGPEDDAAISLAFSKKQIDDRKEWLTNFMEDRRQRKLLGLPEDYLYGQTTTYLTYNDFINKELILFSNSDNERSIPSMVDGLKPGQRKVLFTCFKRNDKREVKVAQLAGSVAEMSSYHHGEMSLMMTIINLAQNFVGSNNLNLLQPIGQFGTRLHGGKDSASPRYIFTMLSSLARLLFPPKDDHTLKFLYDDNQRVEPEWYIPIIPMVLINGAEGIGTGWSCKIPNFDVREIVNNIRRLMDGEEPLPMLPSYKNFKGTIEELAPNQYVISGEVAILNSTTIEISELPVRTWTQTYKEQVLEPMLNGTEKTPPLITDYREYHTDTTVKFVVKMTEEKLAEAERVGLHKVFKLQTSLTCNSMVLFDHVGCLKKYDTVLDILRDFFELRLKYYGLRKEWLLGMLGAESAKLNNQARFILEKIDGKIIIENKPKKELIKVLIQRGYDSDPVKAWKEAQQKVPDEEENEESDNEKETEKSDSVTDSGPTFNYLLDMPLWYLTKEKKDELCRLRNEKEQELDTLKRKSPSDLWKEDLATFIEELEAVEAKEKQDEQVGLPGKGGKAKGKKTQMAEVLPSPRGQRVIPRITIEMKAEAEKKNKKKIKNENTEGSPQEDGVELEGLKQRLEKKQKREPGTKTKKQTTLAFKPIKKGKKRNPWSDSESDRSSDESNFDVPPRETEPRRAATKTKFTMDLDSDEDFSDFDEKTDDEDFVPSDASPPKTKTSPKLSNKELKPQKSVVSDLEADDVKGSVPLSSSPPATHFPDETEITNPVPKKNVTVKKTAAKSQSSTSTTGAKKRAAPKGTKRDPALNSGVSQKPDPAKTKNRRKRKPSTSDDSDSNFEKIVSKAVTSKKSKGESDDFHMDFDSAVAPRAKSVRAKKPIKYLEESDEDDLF

Take `Cc1sc2c(c1C)C(c1ccc(Cl)cc1)=N[C@@H](CC(=O)OC(C)(C)C)c1nnc(C)n1-2`: the IC50 entry in experiment [1], in experiment [2] and in experiment [3] was “Not Active” throughout.

With `COc1cccc2c1C(=O)c1c(O)c3c(c(O)c1C2=O)C[C@@](O)(C(=O)CO)C[C@@H]3O[C@H]1C[C@H](N)[C@H](O)[C@H](C)O1` [DOXORUBICIN], the IC50 result in experiment [4] is “Not Active”.
